Values joined by “and” are separate entries in the source; they are usually repeats but may differ in a detail not shown here. Equal values may be shown once. Read-outs that look alike come from different tables or passages of the source.
Tests used:
phylloxera-biotype A = experiment: greenhouse Merlot vines infested with phylloxera, leaf spray, disease rating of roots; type: in vivo, Daktulosphaira vitifoliae
Description: For greenhouse tests, one year old potted V. vinifera cultivar merlot plants were used that had been obtained from Foundation Plant Material Service, University of California, Davis. The plants were potted in 10 cm diameter pots and were infested with phylloxera 5 weeks prior to treatment. At the time of spraying with a treatment solution, plant pots were placed in a plastic bag so that chemical runoff from the leaf sprays would not drip into the soil. The plants were sprayed to runoff with a household 1 liter-capacity plastic spray bottle. Plants were allowed to air dry outside and then replaced in the greenhouse. At intervals thereafter, the roots were separated from the potting mix and total phylloxera population estimated.

[1] = system: root-knot nematode, Meloidogyne javanica; type: in vivo
Experimental: In a double blind study, concentrations of the subject aldehyde compounds were tested for activity against root-knot nematode, Meloidogyne javanica. Nematodes were put in direct contact with the chemical and at 24 hour intervals, mortality was assessed both visually and by probing. Meloidogyne javanica were produced using hydroponics. The nematodes were harvested and used within 24 hours.
Approximately 100 nematodes in 0.07 mls of water were pipetted into a syracuse dish (Fisher) and 1 ml of test formulation was immediately pipetted into each dish. The dishes were then placed into plastic bags to retain moisture and prevent evaporation. Four syracuse dishes were used for each solution test formulation. […] Moving nematodes were counted as living.

[2] = system: Fusarium subglutinans f. sp. pini; experiment: radial growth on amended potato dextrose agar; type: cell-based; settings: five days at 18° C
Experimental: A double-blind bioassay was undertaken using cinnamic aldehyde in various concentrations and formulations. The bioassay was based on inhibition of radial growth of Fusarium subglutinans f. sp. pini. Eight ml of formulation (concentration unknown) was pipetted into 200 ml of molten 2% potato dextrose agar (PDA) and the mixture was dispersed into five plastic petri dishes (25 ml dish). Each of four plates was inoculated at the center with an agar plug transferred from a growing PDA culture of Fusarium subglutinans f. sp. pini (isolate SL-1, UCB), while the fifth plate was left noninoculated as a control. These steps were repeated for each formulation of the cinnamic aldehyde. As a positive control, four PDA plates amended with 5 ppm benomyl were inoculated. as described; the negative control was four unamended PDA plates that were inoculated with F. subglutinans. All inoculated and non-inoculated plates were incubated at 18° C. for five days, after which colony diameters were measured.

pacific mites = pacific mites on Chardonnay grapevines; type: in vivo; settings: for PERCENT INHIBITION / POST-SPRAY MITES: 150 gal./acre, 4 days after spraying; for PRE-SPRAY MITES: baseline
Experimental: (§1) The effect of 0.3% and 0.6% cinnamic aldehyde on pacific mites on grapevine leaves was examined cinnamic aldehyde was diluted to 0.3% and 0.6% in water. Each formulation was sprayed onto a 1 acre block of Chardonnay wine grapes with a tractor-drawn 500 gal. hydraulic sprayer at 150 psi at a rate of 150 gal./acre. As a control, a 10-acre block of Chardonnay wine grapes was treated the same day as the test formulations with the conventional treatment (Omite) per label directions. The number of mites was counted the day prior to spraying and 4 days after spraying. […] In fact, both concentrations reduced the number of mites to a larger extent than the positive control, conventional treatment, Omite. The 0.6% rate nearly eliminated live mites on grapevines. […] The 0.6% was slightly beter than the 0.3 % cinnamic aldehyde with respect to powdery mildew control.

powdery mildew = powdery mildew on Chardonnay grapes; type: in vivo
Experimental: as §1
The effect of 0.4% cinnamic aldehyde on powdery mildew and pacific mites on grapes was examined. Cinnamic aldehyde was diluted to 0.4% in water and sprayed onto a 1.8 acre test plot of Chardonnay grapevines with a tractor drawn, PTO powered sprayer, spraying at approximately 100 psi at a rate of 150 gal./acre. A 3 acre untreated plot served as a negative control. Additional controls included treatment of a 3.8 acre plot with stylet oil and a plot treated with a mix of Rubigan, Omite, and stylet oil, which cost appriximately $60.00/acre. Spray cards were placed randomly through the test block. Ten fruit clusters, which were generally completely covered with powdery mildew, in each of the four fields were flagged. […] Therefore, cinnamic aldehyde was effective at controlling both powdery mildew and pacific mites on grapes.

[3] = CNMA 0.4% in water, 150 gal./acre, controls stylet oil, chemical mix

Q: Which results are given for O=C/C=C/c1ccccc1 [cinnamic aldehyde]?
A: Average disease rating (0-4) (phylloxera-biotype A; CNMA 10,000 ppm in 6% NaHCO3 and 2% Tween-80, leaves to run-off, week 1 (7 day evaluation)): 0^2(3)^3 and 0; Average disease rating (0-4) (phylloxera-biotype A; Experiment 2, 2500 ppm CNMA leaf treatment, 1 day post treatment): 4 (3); Average disease rating (0-4) (phylloxera-biotype A; Experiment 2, 2500 ppm CNMA leaf treatment, 2 days post treatment): 0.3(3); Average disease rating (0-4) (phylloxera-biotype A; Experiment 2, 2500 ppm CNMA leaf treatment, 7 days post treatment): 0.3(3); insects on roots after leaf spray (phylloxera-biotype A; one-year-old greenhouse Merlot vines sprayed to run-off, after two weeks): disappeared; effect on mortality ([1]; 0.1 ppm in vehicle): no effect on mortality; effect on mortality ([1]; 1 ppm in vehicle): no effect on mortality; nematodes dead ([1]; 10 ppm in vehicle, 24 hours): 0%; nematodes dead ([1]; 10 ppm in vehicle, 48 hours): 15%; nematodes dead ([1]; 10 ppm in vehicle, 72 hours): 17.5%; nematodes dead ([1]; 10 ppm in vehicle, 96 hours): 22.5%; nematodes dead ([1]; 10 ppm in vehicle, 108 hours): 27.5%; nematodes dead ([1]; 10 ppm in vehicle, 132 hours): 52.5%; nematodes dead ([1]; 10 ppm in vehicle, 156 hours): 52.5%; nematodes dead ([1]; greater than 100 ppm in vehicle (2% Tween 80, 6% NaHCO3), 24 hours): 100%; Colony diameter (cm) ([2]; 10 ppm CNMA (with saponin: 0.86 ml Yucca extract 10° BRIX)): 4.36 cm; Colony diameter (cm) ([2]; 10 ppm CNMA (with saponin: 0.86 ml Yucca extract 10° BRIX), listed as CNMA): 4.363 cm; Colony diameter (cm) ([2]; 100 ppm CNMA (with saponin: 0.86 ml)): 4.238 cm; Colony diameter (cm) ([2]; 100 ppm CNMA (with saponin: 0.86 ml), listed as PGXL CNMA): 4.24 cm; Colony diameter (cm) ([2]; 2,500 ppm CNMA (with saponin: 0.86 ml)): 3.513 cm; Colony diameter (cm) ([2]; 2,500 ppm CNMA (with saponin: 0.86 ml), listed as PGXL CNMA): 3.51 cm; Colony diameter (cm) ([2]; 5,000 ppm CNMA (with saponin: 0.86 ml)): 2.908 cm; Colony diameter (cm) ([2]; 5,000 ppm CNMA (with saponin: 0.86 ml), listed as PGXL CNMA): 2.91 cm; Colony diameter (cm) ([2]; 12,500 ppm CNMA (with saponin: 0.86 ml)): 0.000 cm; Colony diameter (cm) ([2]; 12,500 ppm CNMA (with saponin: 0.86 ml), listed as PGXL CNMA): 0 cm; Colony diameter (cm) ([2]; 25,000 ppm CNMA (with saponin: 0.86 ml)): 0.000 cm; Colony diameter (cm) ([2]; 25,000 ppm CNMA (with saponin: 0.86 ml), listed as PGXL CNMA): 0 cm; PERCENT INHIBITION (pacific mites; 0.3% CNMA in water): 89%; POST-SPRAY MITES (pacific mites; 0.3% CNMA in water): 4.5; PERCENT INHIBITION (pacific mites; 0.6% CNMA in water): 98%; POST-SPRAY MITES (pacific mites; 0.6% CNMA in water): 0.5; PRE-SPRAY MITES (pacific mites; day prior to spraying 0.3% CNMA): 41.4; PRE-SPRAY MITES (pacific mites; day prior to spraying 0.6% CNMA): 32.5; % INHIBITION (PM) (powdery mildew; [3]): 88%; PM POST-SPRAY (powdery mildew; [3]): 10; PM PRE-SPRAY (powdery mildew; baseline, CNMA 0.4% plot, stylet oil plot, chemical mix plot): 84; incidence of powdery mildew (not quantitated) (powdery mildew; both treatments, 0.3% and 0.6% in water, Chardonnay): markedly reduced
